Reference: PubChem BioAssay AID256 (DTP/NCI, 2004)
Where “and” joins values, the source holds several entries; their conditions need not be identical. Equal entries are not always repeated. Toxic doses and inconclusive results are not listed. The calls were made as follows: active = survival T/C of 150% or more; inactive = T/C below 125% in these data.

Tested on: CD2F1 mice, L1210 leukemia ip, survival T/C
Assay: NCI In Vivo Anticancer Drug Screen. Data for tumor model L1210 Leukemia (intraperitoneal) in CD2F1 (CDF1) mice
Conditions: higher = longer survival
Outline: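 Implant tumor; dose compound or vehicle; measure endpoint in both groups; report treated divided by control.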

[1] = endpoint: mean survival time, dose: 25.0 mg/kg/injection, schedule: Q01DX009 (ip), vehicle: saline
[2] = endpoint: mean survival time, dose: 100.0 mg/kg/injection, schedule: Q01DX009 (ip), vehicle: saline with Tween-80
[3] = endpoint: mean survival time, dose: 200.0 mg/kg/injection, schedule: Q01DX009 (ip), vehicle: saline with Tween-80
[4] = endpoint: mean survival time, dose: 400.0 mg/kg/injection, schedule: Q01DX009 (ip), vehicle: saline with Tween-80
[5] = endpoint: mean survival time, dose: 100.0 mg/kg/injection, schedule: Q04DX003 (ip), vehicle: saline with Tween-80
[6] = endpoint: mean survival time, dose: 200.0 mg/kg/injection, schedule: Q04DX003 (ip), vehicle: saline with Tween-80
[7] = endpoint: mean survival time, dose: 400.0 mg/kg/injection, schedule: Q04DX003 (ip), vehicle: saline with Tween-80
[8] = endpoint: mean survival time, dose: 50.0 mg/kg/injection, schedule: Q01DX009 (ip), vehicle: saline with Tween-80
[9] = endpoint: mean survival time, dose: 100.0 mg/kg/injection, schedule: Q04DX002 (ip), vehicle: saline with Tween-80
[10] = endpoint: mean survival time, dose: 200.0 mg/kg/injection, schedule: Q04DX002 (ip), vehicle: saline with Tween-80

Measured: T/C

Cc1[nH]nc(C(N)=O)c1N=NN1CCOCC1
inactive: endpoint: mean survival time, dose: 75.0 mg/kg/injection, schedule: Q01DX001 (ip), vehicle: other 101 % of control | endpoint: mean survival time, dose: 150.0 mg/kg/injection, schedule: Q01DX001 (ip), vehicle: other 106 % of control | endpoint: mean survival time, dose: 300.0 mg/kg/injection, schedule: Q01DX001 (ip), vehicle: other 109 % of control

C=CCNC(C)=O
inactive: endpoint: mean survival time, dose: 100.0 mg/kg/injection, schedule: Q01DX001 (ip), vehicle: saline 103 % of control | endpoint: mean survival time, dose: 200.0 mg/kg/injection, schedule: Q01DX001 (ip), vehicle: saline 97 % of control | endpoint: mean survival time, dose: 400.0 mg/kg/injection, schedule: Q01DX001 (ip), vehicle: saline 103 % of control

CCOP(=O)(OCC)OCC1OC(n2cnc3c(N)ncnc32)C(O)C1O (centres undefined)
inactive: endpoint: median survival time, dose: 12.5 mg/kg/injection, schedule: Q01DX005 (ip), vehicle: distilled water + Tween-80 96 % of control | endpoint: median survival time, dose: 25.0 mg/kg/injection, schedule: Q01DX005 (ip), vehicle: distilled water + Tween-80 96 % of control | endpoint: median survival time, dose: 50.0 mg/kg/injection, schedule: Q01DX005 (ip), vehicle: distilled water + Tween-80 103 % of control | endpoint: median survival time, dose: 100.0 mg/kg/injection, schedule: Q01DX005 (ip), vehicle: distilled water + Tween-80 102 % of control | endpoint: median survival time, dose: 200.0 mg/kg/injection, schedule: Q01DX005 (ip), vehicle: distilled water + Tween-80 101 % of control

CCOC(=O)C(CC(=O)O)=C1c2ccccc2-c2ccccc21
inactive: endpoint: mean survival time, dose: 25.0 mg/kg/injection, schedule: Q04DX003 (ip), vehicle: Klucel (hydroxypropylcellulose) (HPC) 96 % of control | endpoint: mean survival time, dose: 50.0 mg/kg/injection, schedule: Q04DX003 (ip), vehicle: Klucel (hydroxypropylcellulose) (HPC) 93 % of control | endpoint: mean survival time, dose: 100.0 mg/kg/injection, schedule: Q04DX003 (ip), vehicle: Klucel (hydroxypropylcellulose) (HPC) 87 % of control | endpoint: mean survival time, dose: 200.0 mg/kg/injection, schedule: Q04DX003 (ip), vehicle: Klucel (hydroxypropylcellulose) (HPC) 93 % of control

CC(=O)Nc1cccc(Oc2ccc([N+](=O)[O-])cc2)c1
inactive: endpoint: mean survival time, dose: 100.0 mg/kg/injection, schedule: Q04DX002 (ip), vehicle: Klucel (hydroxypropylcellulose) (HPC) 98 % of control | endpoint: mean survival time, dose: 200.0 mg/kg/injection, schedule: Q04DX002 (ip), vehicle: Klucel (hydroxypropylcellulose) (HPC) 103 % of control | endpoint: mean survival time, dose: 400.0 mg/kg/injection, schedule: Q04DX002 (ip), vehicle: Klucel (hydroxypropylcellulose) (HPC) 98 % of control

C=CCc1cn(C2CC(O)C(CO)O2)c(=O)[nH]c1=O (centres undefined)
inactive: endpoint: mean survival time, dose: 12.5 mg/kg/injection, schedule: Q01DX009 (ip), vehicle: saline 94 % of control and 104 % of control | [1] 101 % of control and 107 % of control | endpoint: mean survival time, dose: 50.0 mg/kg/injection, schedule: Q01DX009 (ip), vehicle: saline 95 % of control and 108 % of control | endpoint: mean survival time, dose: 100.0 mg/kg/injection, schedule: Q01DX009 (ip), vehicle: saline 103 % of control and 110 % of control | endpoint: mean survival time, dose: 200.0 mg/kg/injection, schedule: Q01DX009 (ip), vehicle: saline 104 % of control and 106 % of control | endpoint: mean survival time, dose: 400.0 mg/kg/injection, schedule: Q01DX009 (ip), vehicle: saline 118 % of control and 111 % of control (2×)

CCOC(=O)CCC1(C(=O)OC)C(=O)CCCCC/C=C/1C(=O)OC (centres undefined)
inactive: [2] 101 % of control | [3] 93 % of control | [4] 96 % of control

N#Cc1cn(C2OC(CO)C(O)C2O)c2ncn(N)c(=N)c12 (centres undefined)
inactive: endpoint: mean survival time, dose: 25.0 mg/kg/injection, schedule: Q01DX005 (ip), vehicle: water 110 % of control | endpoint: mean survival time, dose: 50.0 mg/kg/injection, schedule: Q01DX005 (ip), vehicle: water 111 % of control | endpoint: mean survival time, dose: 100.0 mg/kg/injection, schedule: Q01DX005 (ip), vehicle: water 118 % of control

O=C(c1ccc(-c2ccccc2)cc1)c1no[n+]([O-])c1C(=O)c1ccc(-c2ccccc2)cc1
inactive: [2] 96 % of control | [5] 86 % of control | [3] 93 % of control | [6] 98 % of control | [7] 88 % of control

O=C(Nc1ccccc1)Nc1ccccc1F
inactive: [2] 95 % of control | [3] 113 % of control | [4] 98 % of control

c1ccc(NN=C(c2ccccc2)c2ccccc2)cc1
inactive: [5] 95 % of control | [6] 95 % of control | [7] 98 % of control

CCC1C(=O)NC(=O)NC1=O
inactive: [2] 96 % of control | [5] 98 % of control | [3] 94 % of control | [6] 94 % of control | [4] 93 % of control | [7] 96 % of control

C=CCN(CC=C)C(=O)NCC(=O)OCC
inactive: [8] 101 % of control | [2] 95 % of control | [3] 97 % of control

CCCOC(=O)COc1ccc(F)cc1
inactive: [9] 97 % of control | [10] 101 % of control | endpoint: mean survival time, dose: 400.0 mg/kg/injection, schedule: Q04DX002 (ip), vehicle: saline with Tween-80 97 % of control

COC(=O)C1(C)CCCC2(C)C1CCC13OC1C(C(C)C)=CCC23 (centres undefined)
inactive: [2] 104 % of control | [3] 97 % of control | [4] 101 % of control

Cc1ccc(C#CP(C#Cc2ccc(C)cc2)C#Cc2ccc(C)cc2)cc1
inactive: endpoint: mean survival time, dose: 1.56 mg/kg/injection, schedule: Q01DX009 (ip), vehicle: saline with Tween-80 92 % of control | endpoint: mean survival time, dose: 3.12 mg/kg/injection, schedule: Q01DX009 (ip), vehicle: saline with Tween-80 96 % of control | endpoint: mean survival time, dose: 6.25 mg/kg/injection, schedule: Q01DX009 (ip), vehicle: saline 96 % of control | [1] 96 % of control

COc1ccc(C(O)(c2ccccc2)C(C)O)cc1 (centres undefined)
inactive: [5] 101 % of control | [6] 98 % of control | [7] 98 % of control

C[n+]1c(/C=C/c2ccccc2Cl)ccc2ccccc21
inactive: endpoint: mean survival time, dose: 12.5 mg/kg/injection, schedule: Q01DX009 (ip), vehicle: saline with Tween-80 94 % of control | endpoint: mean survival time, dose: 25.0 mg/kg/injection, schedule: Q01DX009 (ip), vehicle: saline with Tween-80 100 % of control | [8] 96 % of control | endpoint: mean survival time, dose: 50.0 mg/kg/injection, schedule: Q04DX003 (ip), vehicle: saline with Tween-80 95 % of control

OCNC(=S)c1c(Cl)cccc1Cl
inactive: [2] 98 % of control | [3] 102 % of control

CCCCCCCCCCCCCCCCCC[n+]1cccc(C(=O)c2ccccc2)c1
inactive: endpoint: mean survival time, dose: 9.38 mg/kg/injection, schedule: Q01DX001 (ip), vehicle: other 100 % of control | endpoint: mean survival time, dose: 18.75 mg/kg/injection, schedule: Q01DX001 (ip), vehicle: other 108 % of control

[O]=[Mo]
inactive: endpoint: mean survival time, dose: 100.0 mg/kg/injection, schedule: Q04DX003 (ip), vehicle: saline 107 % of control

CN(C)CCOc1ccccc1Cc1ccccc1
inactive: [8] 104 % of control | [2] 119 % of control | [5] 98 % of control | [3] 107 % of control | [6] 97 % of control

Cc1ccc(S(=O)(=O)NC(=O)OCCc2c3ccccc3nc3ccccc23)cc1
inactive: endpoint: mean survival time, dose: 100.0 mg/kg/injection, schedule: Q04DX002 (ip), vehicle: other 97 % of control | [9] 97 % of control | endpoint: mean survival time, dose: 200.0 mg/kg/injection, schedule: Q04DX002 (ip), vehicle: other 97 % of control | [10] 109 % of control

Cc1ccc(NC(=O)Oc2cc(C)c(Cl)c(C)c2Cl)c(C)c1
inactive: [8] 89 % of control | [2] 101 % of control | [3] 104 % of control

Cc1cccc(NC(N)=S)n1
inactive: endpoint: mean survival time, dose: 12.5 mg/kg/injection, schedule: Q01DX009 (ip), vehicle: other 103 % of control | endpoint: mean survival time, dose: 25.0 mg/kg/injection, schedule: Q01DX009 (ip), vehicle: other 107 % of control | endpoint: mean survival time, dose: 50.0 mg/kg/injection, schedule: Q01DX009 (ip), vehicle: other 107 % of control | endpoint: mean survival time, dose: 100.0 mg/kg/injection, schedule: Q01DX009 (ip), vehicle: other 91 % of control | endpoint: mean survival time, dose: 200.0 mg/kg/injection, schedule: Q01DX009 (ip), vehicle: other 111 % of control
